Laboratory results published in PubChem BioAssay AID246 (DTP/NCI, 2004).
Several values for one entry are separate records, joined by “and”; a condition that tells them apart may be missing. Equal entries are not always repeated. Inconclusive results and toxic doses are left out.

Tested on: BDF1 mice, P1081 chloroleukemia ip, survival T/C
Assay: NCI In Vivo Anticancer Drug Screen. Data for tumor model P1081 Chloroleukemia (intraperitoneal) in B6D2F1 (BDF1) mice
Conditions: endpoint: mean survival time, higher = longer survival
Procedure: The antitumor activity of compounds was measured in mice bearing transplantable tumors. Survival or tumor size were measured and the results are expressed as the measurement made in the treated group (T) divided by the measurement made in the vehicle treated control group (C). The tumor model used in this assay is P1081 Chloroleukemia (intraperitoneal) in B6D2F1 (BDF1) mice

[1] = dose: 25.0 mg/kg/injection, schedule: Q01DX010 (ip), vehicle: saline
[2] = dose: 50.0 mg/kg/injection, schedule: Q01DX010 (ip), vehicle: saline
[3] = dose: 100.0 mg/kg/injection, schedule: Q01DX010 (ip), vehicle: saline
[4] = dose: 25.0 mg/kg/injection, schedule: Q01DX Z (ip), vehicle: carboxymethylcellulose (CMC)
[5] = dose: 50.0 mg/kg/injection, schedule: Q01DX Z (ip), vehicle: carboxymethylcellulose (CMC)
[6] = dose: 100.0 mg/kg/injection, schedule: Q01DX Z (ip), vehicle: carboxymethylcellulose (CMC)

With `[I][Hg][CH2]C1COC([CH2][Hg][I])CO1` (stereo not given) the T/C (dose: 6.25 mg/kg/injection, schedule: Q01DX010 (ip), vehicle: saline) was 110 % of control, the T/C (dose: 7.5 mg/kg/injection, schedule: Q01DX Z (ip), vehicle: carboxymethylcellulose (CMC)) was 97 % of control and the T/C (dose: 12.5 mg/kg/injection, schedule: Q01DX010 (ip), vehicle: saline) was 95 % of control. For the same compound, the T/C (dose: 15.0 mg/kg/injection, schedule: Q01DX Z (ip), vehicle: carboxymethylcellulose (CMC)) was 119 % of control, the T/C [1] was 90 % of control and the T/C (dose: 60.0 mg/kg/injection, schedule: Q01DX Z (ip), vehicle: carboxymethylcellulose (CMC)) was 88 % of control and 103 % of control.
In the case of `COC12C(COC(N)=O)C3=C(C(=O)C(C)=C(N)C3=O)N1CC1C2N1C` (stereo not given), the T/C (dose: 0.63 mg/kg/injection, schedule: Q01DX Z (ip), vehicle: carboxymethylcellulose (CMC)) was 123 % of control, the T/C (dose: 1.25 mg/kg/injection, schedule: Q01DX Z (ip), vehicle: carboxymethylcellulose (CMC)) was 107 % of control and the T/C (dose: 2.5 mg/kg/injection, schedule: Q01DX Z (ip), vehicle: carboxymethylcellulose (CMC)) was 112 % of control. For the same compound, the T/C (dose: 5.0 mg/kg/injection, schedule: Q01DX Z (ip), vehicle: carboxymethylcellulose (CMC)) was 152 % of control.
For `Nc1c(I)cc(I)cc1C(=O)O`, the T/C [1] was 100 % of control, the T/C [2] was 110 % of control and 88 % of control and the T/C [3] was 100 % of control and 105 % of control. The T/C (dose: 200.0 mg/kg/injection, schedule: Q01DX010 (ip), vehicle: saline) was 111 % of control and 105 % of control.
For `CC(=O)NC1=C(N2CC2)C(=O)C(NC(C)=O)=C(N2CC2)C1=O`, the T/C (dose: 250.0 micrograms/kg/injection, schedule: Q01DX010 (ip), vehicle: saline) was 188 % of control and 210 % of control, the T/C (dose: 500.0 micrograms/kg/injection, schedule: Q01DX010 (ip), vehicle: saline) was 255 % of control and 270 % of control and the T/C (dose: 1000.0 micrograms/kg/injection, schedule: Q01DX010 (ip), vehicle: saline) was 115 % of control.
`CN(C)c1ccc(Nc2c3ccccc3nc3ccccc23)cc1` was tested, and the T/C (dose: 6.25 mg/kg/injection, schedule: Q01DX Z (ip), vehicle: carboxymethylcellulose (CMC)) was 101 % of control, the T/C (dose: 12.5 mg/kg/injection, schedule: Q01DX Z (ip), vehicle: carboxymethylcellulose (CMC)) was 88 % of control and the T/C [4] was 90 % of control. For the same compound, the T/C (dose: 36.0 mg/kg/injection, schedule: Q01DX010 (ip), vehicle: saline) was 104 % of control, the T/C [5] was 95 % of control and the T/C [6] was 103 % of control.
In the case of `CS(=O)(=O)OCCC(=O)N1CCN(C(=O)CCOS(C)(=O)=O)CC1`, the T/C [1] was 150 % of control and 285 % of control, the T/C [2] was 260 % of control and 277 % of control and the T/C [3] was 120 % of control and 205 % of control.
`Cn1cnc([N+](=O)[O-])c1Sc1ncnc2nc[nH]c12` was tested, and the T/C [4] was 165 % of control, the T/C [5] was 150 % of control and the T/C [6] was 104 % of control.
For `CC(=O)O[C@]1(C(C)=O)CC[C@H]2[C@@H]3C[C@H](C)C4=CC(=O)C=C[C@]4(C)[C@@]3(F)[C@@H](O)C[C@@]21C`, the T/C (dose: 2.5 mg/kg/injection, schedule: Q01DX Z (sc), vehicle: steriod suspending solution) was 100 % of control, the T/C (dose: 5.0 mg/kg/injection, schedule: Q01DX Z (sc), vehicle: steriod suspending solution) was 108 % of control and the T/C (dose: 10.0 mg/kg/injection, schedule: Q01DX Z (sc), vehicle: steriod suspending solution) was 107 % of control. The T/C (dose: 12.5 mg/kg/injection, schedule: Q01DX010 (sc), vehicle: steriod suspending solution) was 105 % of control and 100 % of control, the T/C (dose: 20.0 mg/kg/injection, schedule: Q01DX Z (sc), vehicle: steriod suspending solution) was 108 % of control and the T/C (dose: 25.0 mg/kg/injection, schedule: Q01DX010 (sc), vehicle: steriod suspending solution) was 100 % of control. For the same compound, the T/C (dose: 40.0 mg/kg/injection, schedule: Q01DX Z (sc), vehicle: steriod suspending solution) was 116 % of control, the T/C (dose: 50.0 mg/kg/injection, schedule: Q01DX010 (sc), vehicle: steriod suspending solution) was 90 % of control and 95 % of control and the T/C (dose: 100.0 mg/kg/injection, schedule: Q01DX010 (sc), vehicle: steriod suspending solution) was 90 % of control and 100 % of control. The T/C (dose: 160.0 mg/kg/injection, schedule: Q01DX Z (sc), vehicle: steriod suspending solution) was 105 % of control and the T/C (dose: 320.0 mg/kg/injection, schedule: Q01DX Z (sc), vehicle: steriod suspending solution) was 93 % of control.
